Reference: the NIST ThermoML archive (doi:10.1007/s10765-005-5570-x)
Numbers after ± are expanded uncertainties.

Experiment: xn = mol fraction of the nth substance listed
Settings: Liquid

ClCBr [bromochloromethane] + CCOC(C)=O
Settings	mass density [kg/m3]
288.15 K, 101.33 kPa, x1 = 0.0961	976.08 ± 0.36
288.15 K, 101.33 kPa, x1 = 0.2333	1083.23 ± 0.51
288.15 K, 101.33 kPa, x1 = 0.3083	1145.77 ± 0.65
288.15 K, 101.33 kPa, x1 = 0.4015	1228.4 ± 0.84
288.15 K, 101.33 kPa, x1 = 0.5004	1322.97 ± 1.1
288.15 K, 101.33 kPa, x1 = 0.604	1430.45 ± 1.3
288.15 K, 101.33 kPa, x1 = 0.7004	1538.94 ± 1.6
288.15 K, 101.33 kPa, x1 = 0.7987	1659.96 ± 1.9
288.15 K, 101.33 kPa, x1 = 0.9032	1800.66 ± 2.2
288.15 K, 101.33 kPa, x1 = 1	1945.94 ± 2.6
298.15 K, 101.33 kPa, x1 = 0.0961	963.62 ± 0.38
298.15 K, 101.33 kPa, x1 = 0.2333	1069.74 ± 0.48
298.15 K, 101.33 kPa, x1 = 0.3083	1131.77 ± 0.62
298.15 K, 101.33 kPa, x1 = 0.4015	1213.84 ± 0.81
298.15 K, 101.33 kPa, x1 = 0.5004	1308.02 ± 1
298.15 K, 101.33 kPa, x1 = 0.604	1414.77 ± 1.3
298.15 K, 101.33 kPa, x1 = 0.7004	1522.14 ± 1.6
298.15 K, 101.33 kPa, x1 = 0.7987	1641.51 ± 1.9
298.15 K, 101.33 kPa, x1 = 0.9032	1780.71 ± 2.2
298.15 K, 101.33 kPa, x1 = 1	1924.88 ± 2.5
298.15 K, 200 kPa, x1 = 0.2995	1118.5 ± 0.59
298.15 K, 200 kPa, x1 = 0.5013	1299.53 ± 1
298.15 K, 200 kPa, x1 = 0.6994	1514.36 ± 1.6
298.15 K, 600 kPa, x1 = 0.2995	1119.03 ± 0.6
298.15 K, 600 kPa, x1 = 0.5013	1300.17 ± 1.1
298.15 K, 700 kPa, x1 = 0.6994	1515.04 ± 1.6
298.15 K, 1100 kPa, x1 = 0.2995	1119.69 ± 0.62
298.15 K, 1200 kPa, x1 = 0.5013	1300.97 ± 1.1
298.15 K, 1200 kPa, x1 = 0.6994	1515.77 ± 1.7
298.15 K, 1900 kPa, x1 = 0.6994	1516.63 ± 1.7
298.15 K, 2000 kPa, x1 = 0.2995	1120.79 ± 0.64
298.15 K, 2100 kPa, x1 = 0.5013	1301.96 ± 1.1
298.15 K, 3000 kPa, x1 = 0.5013	1303.21 ± 1.2
298.15 K, 3100 kPa, x1 = 0.2995	1121.97 ± 0.67
298.15 K, 3100 kPa, x1 = 0.6994	1518.35 ± 1.9
298.15 K, 4000 kPa, x1 = 0.2995	1123.04 ± 0.69
298.15 K, 4000 kPa, x1 = 0.5013	1304.49 ± 1.3
298.15 K, 4000 kPa, x1 = 0.6994	1519.64 ± 2
298.15 K, 4900 kPa, x1 = 0.5013	1305.64 ± 1.3
298.15 K, 5100 kPa, x1 = 0.2995	1124.32 ± 0.72
298.15 K, 5100 kPa, x1 = 0.6994	1521.08 ± 2.1
298.15 K, 5800 kPa, x1 = 0.6994	1522.03 ± 2.2
298.15 K, 6000 kPa, x1 = 0.5013	1306.93 ± 1.4
298.15 K, 6100 kPa, x1 = 0.2995	1125.53 ± 0.75
298.15 K, 6800 kPa, x1 = 0.6994	1523.33 ± 2.3
298.15 K, 6900 kPa, x1 = 0.2995	1126.38 ± 0.78
298.15 K, 7000 kPa, x1 = 0.5013	1308.07 ± 1.5
298.15 K, 7800 kPa, x1 = 0.5013	1309.22 ± 1.6
298.15 K, 7900 kPa, x1 = 0.2995	1127.44 ± 0.81
298.15 K, 7900 kPa, x1 = 0.6994	1524.7 ± 2.5
298.15 K, 8700 kPa, x1 = 0.6994	1525.86 ± 2.6
298.15 K, 8800 kPa, x1 = 0.5013	1310.44 ± 1.6
298.15 K, 9000 kPa, x1 = 0.2995	1128.74 ± 0.84
298.15 K, 9800 kPa, x1 = 0.5013	1311.74 ± 1.7
298.15 K, 9800 kPa, x1 = 0.6994	1527.42 ± 2.7
298.15 K, 9900 kPa, x1 = 0.2995	1129.86 ± 0.87
298.15 K, 11800 kPa, x1 = 0.2995	1131.84 ± 0.93
298.15 K, 11900 kPa, x1 = 0.6994	1530.29 ± 3
298.15 K, 12100 kPa, x1 = 0.5013	1314.57 ± 1.9
298.15 K, 13800 kPa, x1 = 0.2995	1134.16 ± 1
298.15 K, 13800 kPa, x1 = 0.6994	1532.98 ± 3.2
298.15 K, 13900 kPa, x1 = 0.5013	1316.83 ± 2
298.15 K, 15700 kPa, x1 = 0.2995	1136.18 ± 1.1
298.15 K, 15900 kPa, x1 = 0.5013	1319.23 ± 2.2
298.15 K, 15900 kPa, x1 = 0.6994	1535.7 ± 3.5
298.15 K, 17600 kPa, x1 = 0.5013	1321.38 ± 2.3
298.15 K, 17700 kPa, x1 = 0.2995	1138.39 ± 1.1
298.15 K, 17700 kPa, x1 = 0.6994	1538.2 ± 3.7
298.15 K, 19200 kPa, x1 = 0.6994	1540.32 ± 3.9
298.15 K, 19400 kPa, x1 = 0.6994	1540.59 ± 3.9
298.15 K, 19900 kPa, x1 = 0.5013	1324.19 ± 2.5
298.15 K, 20000 kPa, x1 = 0.2995	1140.92 ± 1.2
308.15 K, 101.33 kPa, x1 = 0.0961	949.99 ± 0.4
308.15 K, 101.33 kPa, x1 = 0.2333	1054.79 ± 0.46
308.15 K, 101.33 kPa, x1 = 0.3083	1116.41 ± 0.59
308.15 K, 101.33 kPa, x1 = 0.4015	1197.33 ± 0.78
308.15 K, 101.33 kPa, x1 = 0.5004	1290.38 ± 1
308.15 K, 101.33 kPa, x1 = 0.604	1396.09 ± 1.2
308.15 K, 101.33 kPa, x1 = 0.7004	1502.46 ± 1.5
308.15 K, 101.33 kPa, x1 = 0.7987	1620.66 ± 1.8
308.15 K, 101.33 kPa, x1 = 0.9032	1758.33 ± 2.1
308.15 K, 101.33 kPa, x1 = 1	1900.86 ± 2.5
